What is called IC50 is the concentration at which inhibition is half-maximal.

Our source for the IC50 and Activity values is ChEMBL document CHEMBL5120855, “Potent 2,3-dihydrophthalazine-1,4-dione derivatives as dual inhibitors for mono-ADP-ribosyltransferases PARP10 and PARP15” (Eur J Med Chem, 2022).

Data set [1] addresses Poly [ADP-ribose] polymerase 1 (Homo sapiens, UniProt P09874). Description: Inhibition of human PARP-1 using NAD+ as substrate incubated for 10 mins by fluorescence based analysis.
Data set [2] has as its target Protein mono-ADP-ribosyltransferase PARP4 (Homo sapiens, UniProt Q9UKK3). Kind of data set: Inhibition of human PARP4.
Data set [3] deals with T1, Protein mono-ADP-ribosyltransferase PARP12 (Homo sapiens, UniProt Q9H0J9).
T1 sequence (Q9H0J9 whole entry): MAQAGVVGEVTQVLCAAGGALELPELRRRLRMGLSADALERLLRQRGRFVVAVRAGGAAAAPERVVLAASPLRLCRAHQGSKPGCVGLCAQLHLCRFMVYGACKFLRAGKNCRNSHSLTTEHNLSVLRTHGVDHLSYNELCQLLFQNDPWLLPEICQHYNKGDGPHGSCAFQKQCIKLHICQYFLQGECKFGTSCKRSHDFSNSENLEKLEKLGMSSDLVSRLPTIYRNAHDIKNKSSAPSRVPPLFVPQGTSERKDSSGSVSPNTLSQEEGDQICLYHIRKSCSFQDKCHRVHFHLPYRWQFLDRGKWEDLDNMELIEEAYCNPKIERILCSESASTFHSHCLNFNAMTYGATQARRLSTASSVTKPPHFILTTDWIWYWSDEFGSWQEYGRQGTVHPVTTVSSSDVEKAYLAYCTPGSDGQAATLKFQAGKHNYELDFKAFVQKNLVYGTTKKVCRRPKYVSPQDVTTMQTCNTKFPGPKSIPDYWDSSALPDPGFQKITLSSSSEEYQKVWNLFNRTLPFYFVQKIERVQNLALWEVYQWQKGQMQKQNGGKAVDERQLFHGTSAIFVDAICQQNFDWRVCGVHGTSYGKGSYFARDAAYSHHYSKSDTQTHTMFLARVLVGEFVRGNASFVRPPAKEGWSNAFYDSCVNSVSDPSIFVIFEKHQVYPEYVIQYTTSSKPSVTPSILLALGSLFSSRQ
Kind of data set: Inhibition of human PARP12.

Data set [4] deals with T2, Protein mono-ADP-ribosyltransferase PARP16 (Homo sapiens, UniProt Q8N5Y8).
T2 sequence (Q8N5Y8 whole entry): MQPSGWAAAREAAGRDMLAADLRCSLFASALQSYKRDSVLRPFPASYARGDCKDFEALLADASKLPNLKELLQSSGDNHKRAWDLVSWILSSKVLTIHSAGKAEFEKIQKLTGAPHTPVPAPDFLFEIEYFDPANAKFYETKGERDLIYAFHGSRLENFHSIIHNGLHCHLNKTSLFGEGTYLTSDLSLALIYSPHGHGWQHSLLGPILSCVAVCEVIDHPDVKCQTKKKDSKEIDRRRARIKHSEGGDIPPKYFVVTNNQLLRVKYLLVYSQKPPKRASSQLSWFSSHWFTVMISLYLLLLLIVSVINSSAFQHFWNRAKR
Description: Inhibition of human PARP16.

The next data set deals with HEK-293T. Description: Cytotoxicity against HEK293T cells assessed as reduction in cell viability at 10 uM measured after 24 hrs by WST-1 assay. It counts as toxicity, cell-based. As to conditions: human. In general terms: Tetrazolium dyes change colour on reduction, which living cells bring about.

Sequence of Poly [ADP-ribose] polymerase 1 (P09874 whole entry): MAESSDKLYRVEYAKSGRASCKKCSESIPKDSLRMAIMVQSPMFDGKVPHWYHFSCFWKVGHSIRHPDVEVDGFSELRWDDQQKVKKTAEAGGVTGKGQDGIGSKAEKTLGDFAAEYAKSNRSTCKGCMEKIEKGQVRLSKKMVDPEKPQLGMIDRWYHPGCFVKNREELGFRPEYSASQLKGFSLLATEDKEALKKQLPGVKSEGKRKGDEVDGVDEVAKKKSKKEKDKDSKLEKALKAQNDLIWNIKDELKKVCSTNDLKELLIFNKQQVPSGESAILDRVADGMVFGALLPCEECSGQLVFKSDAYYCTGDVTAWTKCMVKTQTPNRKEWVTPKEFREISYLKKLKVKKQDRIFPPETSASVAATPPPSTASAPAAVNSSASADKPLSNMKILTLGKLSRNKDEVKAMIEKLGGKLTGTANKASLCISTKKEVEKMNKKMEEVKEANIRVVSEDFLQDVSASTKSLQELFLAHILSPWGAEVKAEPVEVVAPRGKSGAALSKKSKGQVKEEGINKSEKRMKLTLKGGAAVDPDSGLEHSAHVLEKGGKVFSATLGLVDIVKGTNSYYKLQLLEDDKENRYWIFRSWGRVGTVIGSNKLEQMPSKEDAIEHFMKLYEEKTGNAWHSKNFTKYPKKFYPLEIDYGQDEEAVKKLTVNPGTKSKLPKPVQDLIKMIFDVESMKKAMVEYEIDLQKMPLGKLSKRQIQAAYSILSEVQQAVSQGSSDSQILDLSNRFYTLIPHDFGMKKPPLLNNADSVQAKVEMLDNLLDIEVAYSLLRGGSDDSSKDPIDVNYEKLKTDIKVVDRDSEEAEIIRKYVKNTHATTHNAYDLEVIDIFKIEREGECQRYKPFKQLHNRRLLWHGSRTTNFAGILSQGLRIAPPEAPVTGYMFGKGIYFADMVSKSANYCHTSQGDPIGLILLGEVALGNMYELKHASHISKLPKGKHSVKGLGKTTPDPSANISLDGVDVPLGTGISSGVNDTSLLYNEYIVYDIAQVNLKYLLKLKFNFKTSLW
Sequence of Protein mono-ADP-ribosyltransferase PARP4 (Q9UKK3 whole entry): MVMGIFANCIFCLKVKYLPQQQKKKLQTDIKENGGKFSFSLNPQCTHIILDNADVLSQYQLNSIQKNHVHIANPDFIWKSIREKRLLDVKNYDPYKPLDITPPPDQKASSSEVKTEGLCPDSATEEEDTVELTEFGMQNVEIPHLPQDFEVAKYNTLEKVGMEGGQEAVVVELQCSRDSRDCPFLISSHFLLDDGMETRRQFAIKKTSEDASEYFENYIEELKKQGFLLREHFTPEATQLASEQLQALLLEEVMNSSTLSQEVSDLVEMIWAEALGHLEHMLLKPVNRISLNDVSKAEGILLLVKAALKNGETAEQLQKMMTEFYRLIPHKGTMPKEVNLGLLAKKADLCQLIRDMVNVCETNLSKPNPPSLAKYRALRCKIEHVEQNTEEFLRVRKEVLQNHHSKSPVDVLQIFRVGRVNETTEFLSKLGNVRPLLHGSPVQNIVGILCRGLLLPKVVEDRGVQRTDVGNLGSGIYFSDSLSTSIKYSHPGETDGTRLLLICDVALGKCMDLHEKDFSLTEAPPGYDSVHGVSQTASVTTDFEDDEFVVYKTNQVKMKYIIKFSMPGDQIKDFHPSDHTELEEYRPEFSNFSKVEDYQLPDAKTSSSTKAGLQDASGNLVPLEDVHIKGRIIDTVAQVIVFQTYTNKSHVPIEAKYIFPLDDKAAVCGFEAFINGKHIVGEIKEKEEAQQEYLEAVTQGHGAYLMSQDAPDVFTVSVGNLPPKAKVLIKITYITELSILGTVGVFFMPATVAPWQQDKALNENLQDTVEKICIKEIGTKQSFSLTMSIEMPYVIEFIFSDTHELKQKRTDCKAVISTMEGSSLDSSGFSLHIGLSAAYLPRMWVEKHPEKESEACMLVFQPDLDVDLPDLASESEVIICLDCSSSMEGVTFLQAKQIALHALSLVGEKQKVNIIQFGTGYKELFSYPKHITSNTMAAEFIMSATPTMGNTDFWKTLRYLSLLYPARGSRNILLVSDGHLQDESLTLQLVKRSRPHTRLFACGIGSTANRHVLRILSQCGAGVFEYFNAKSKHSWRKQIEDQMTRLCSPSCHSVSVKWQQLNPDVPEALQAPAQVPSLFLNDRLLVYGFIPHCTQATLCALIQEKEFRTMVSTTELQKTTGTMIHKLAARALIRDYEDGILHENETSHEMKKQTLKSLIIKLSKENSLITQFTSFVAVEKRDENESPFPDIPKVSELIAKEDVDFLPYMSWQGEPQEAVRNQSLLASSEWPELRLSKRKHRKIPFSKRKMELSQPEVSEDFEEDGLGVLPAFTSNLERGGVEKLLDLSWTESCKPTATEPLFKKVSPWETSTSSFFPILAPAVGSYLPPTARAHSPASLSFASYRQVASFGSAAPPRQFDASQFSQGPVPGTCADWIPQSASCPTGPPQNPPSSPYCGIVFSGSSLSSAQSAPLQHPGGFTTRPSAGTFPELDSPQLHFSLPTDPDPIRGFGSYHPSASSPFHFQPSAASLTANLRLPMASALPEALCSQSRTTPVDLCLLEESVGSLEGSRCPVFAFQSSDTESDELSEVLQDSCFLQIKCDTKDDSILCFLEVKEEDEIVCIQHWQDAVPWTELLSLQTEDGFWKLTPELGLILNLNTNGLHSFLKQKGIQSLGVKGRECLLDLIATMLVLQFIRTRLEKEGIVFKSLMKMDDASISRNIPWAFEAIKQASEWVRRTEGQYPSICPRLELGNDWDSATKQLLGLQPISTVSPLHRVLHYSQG

Consider `NC(=O)c1ccc(OCC2CCC2)cc1`, for which the IC50 in data set [1] was > 100 µM; in data set [2] it was > 100 µM; in data set [3], > 10 µM; in data set [4], > 10 µM. Further, the Activity result with HEK-293T is listed as “Non-Toxic”.
